Results published in PubChem BioAssay (NCI).
Values joined by “and” are separate entries in the source; they are usually repeats but may differ in a detail not shown here. Identical values can stand only once.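 Protocol summary: plate cells (96-well), add compound at 5 concentrations, incubate 48 h, interpolate endpoints linearly. At the GI50, growth is halved. At the TGI there is no net growth.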

Key:
Test in all cases: NCI-60 cell line screen, 48 h
IGROV1 ovarian = tested on: IGROV1 ovarian
ACHN renal = tested on: ACHN renal
SNB-19 CNS = tested on: SNB-19 CNS
COLO 205 colon = tested on: COLO 205 colon
SR leukemia = tested on: SR leukemia
HL-60(TB) leukemia = tested on: HL-60(TB) leukemia
UO-31 renal = tested on: UO-31 renal
HOP-92 NSCLC = tested on: HOP-92 NSCLC
RPMI-8226 leukemia = tested on: RPMI-8226 leukemia

| Structure (SMILES) | GI50 (IGROV1 ovarian) | TGI (IGROV1 ovarian) | GI50 (ACHN renal) | TGI (ACHN renal) | GI50 (SNB-19 CNS) | TGI (SNB-19 CNS) | GI50 (COLO 205 colon) | TGI (COLO 205 colon) | GI50 (SR leukemia) | TGI (SR leukemia) | GI50 (HL-60(TB) leukemia) | TGI (HL-60(TB) leukemia) | GI50 (UO-31 renal) | TGI (UO-31 renal) | GI50 (HOP-92 NSCLC) | TGI (HOP-92 NSCLC) | GI50 (RPMI-8226 leukemia) | TGI (RPMI-8226 leukemia) |
| --- | --- | --- | --- | --- | --- | --- | --- | --- | --- | --- | --- | --- | --- | --- | --- | --- | --- | --- |
| COc1ccc(OC)c(Cn2cc3c(c2-c2ccccc2)CCc2cnoc2-3)c1 | 6110 nM | > 100 µM | 6890 nM | > 100 µM | 9.43 µM | > 100 µM | 6310 nM | > 100 µM | 2620 nM | > 100 µM | 2030 nM | 6.52 µM | 6380 nM | > 100 µM | 5260 nM | > 100 µM | 6540 nM | > 100 µM |
| CC1(C)CC2C(=O)c3ccccc3NC2c2ccccc21 (stereo not given) | – | > 100 µM | – | > 100 µM | – | > 100 µM | – | 22.1 µM | – | > 100 µM | – | 32.6 µM | – | > 67.2 µM | – | > 100 µM | – | 14.4 µM |
| C=C1C(=O)O[C@H]2[C@H]1CC/C(COC(=O)NCC(C)c1ccc(CC(C)C)cc1)=C\CC[C@@]1(C)O[C@@H]21 (stereo not given in full) | 551 nM | 1.18 µM | 623 nM | 1.32 µM | 3.82 µM | 7.95 µM | 1300 nM | 5.3 µM | 678 nM | 3.6 µM | 786 nM | 2.83 µM | 474 nM | 0.909 µM | 545 nM | 1.5 µM | 681 nM | 1.9 µM |
| CC(=O)/C(=C/c1ccccc1F)C(=O)c1ccccc1 | – | > 100 µM | – | > 100 µM | – | > 100 µM | – | > 100 µM | – | – | – | > 100 µM | – | > 100 µM | – | > 100 µM | – | 44.4 µM |
| CCOC(=O)C(NC(=O)c1nc[nH]c1[N+](=O)[O-])C(C)C (stereo not given) | – | > 100 µM | – | > 100 µM | – | > 100 µM | – | > 100 µM | – | > 100 µM | – | > 100 µM | – | > 100 µM | – | – | – | > 100 µM |
| CCC1=CC2CN(C1)Cc1c([nH]c3ccccc13)[C@@](C(=O)OC)(c1cc3c(cc1OC)N(C)[C@H]1[C@@](O)(C(=O)OC)[C@H](OC(C)=O)[C@]4(CC)C=CCN5CC[C@]31[C@@H]54)C2 (stereo not given in full) | – | – | 407 nM and 1270 nM | 50 µM and > 100 µM | 0.0238 µM | > 100 µM | 7.63 nM | – | < 5 nM | 9.27 µM | < 5 nM | 0.00984 µM and 0.0285 µM | 5450 nM and 1060 nM | 26.6 µM and 76.9 µM | 1510 nM | 97.1 µM | 9.31 nM and 41.5 nM | – |
| Cn1cc(C2=C(c3cn(C4CCN(Cc5ccccn5)CC4)c4ccccc34)C(=O)NC2=O)c2ccccc21 | 9700 nM | > 100 µM | 9360 nM | > 100 µM | > 70.2 µM | > 100 µM | 3080 nM | > 100 µM | 3190 nM | > 100 µM | 3970 nM | > 100 µM | – | – | 83200 nM | > 100 µM | 3930 nM | > 100 µM |
| CCOC(=O)NC(=O)c1cn(CCN2CCN(C(=O)CCCCCCCCCCC(=O)N3CCN(CCn4cc(C(=O)NC(=O)OCC)c(=O)[nH]c4=O)CC3)CC2)c(=O)[nH]c1=O | – | > 100 µM | – | > 100 µM | – | > 100 µM | – | > 100 µM | – | > 100 µM | – | – | – | > 100 µM | – | > 100 µM | – | > 100 µM |
| CCN(C(=O)/C=C/c1ccco1)c1ccccc1 | – | > 100 µM | – | > 100 µM | – | > 100 µM | – | > 100 µM | – | > 100 µM | – | > 100 µM | – | > 100 µM | – | > 100 µM | – | > 100 µM |
| CN(C)CCNC(=O)Cn1ccc(=O)c2c([N+](=O)[O-])cccc21 | – | > 100 µM | – | > 100 µM | – | > 100 µM | – | > 100 µM | – | > 100 µM | – | > 100 µM | – | > 100 µM | – | – | – | > 100 µM |
| O=C(O)c1ccccc1/C=N/N=C1c2ccccc2-c2ccccc21 | – | > 100 µM | – | > 100 µM | – | > 100 µM | – | > 100 µM | – | 95.5 µM | – | 80.8 µM | – | > 100 µM | – | > 100 µM | – | 48.2 µM |
| O=C1CCCCN1CCCCC#Cc1cccc(C#Cc2cccnc2)c1 | 14700 nM | 43.1 µM | 9640 nM | 21.7 µM | 13 µM | 27.2 µM | 6880 nM | 21 µM | – | – | 16200 nM | 70 µM | 5970 nM | 23 µM | 19200 nM | > 100 µM | 4640 nM | 28.7 µM |
| COc1cnc2c(c1)C(=O)c1c-2n(CCCN2CCN(C)CC2)c(=O)c2cc([N+](=O)[O-])ccc12 | 351 nM | 2.26 µM | – | – | 0.399 µM | 5.01 µM | 1640 nM | 3.38 µM | 24.9 nM | 0.365 µM | 168 nM | 0.372 µM | – | – | 1820 nM | 4.37 µM | 226 nM | 0.917 µM |
| COC(=O)C1(C)Cc2cc(OC(C)=O)c(OC(C)=O)cc2N1 (stereo not given) | 5930 nM | 13.9 µM | 3420 nM | 19.9 µM | > 61.9 µM | > 100 µM | 6490 nM | > 40.9 µM | 1650 nM | 4.76 µM | 2420 nM | > 24.2 µM | 3590 nM | 21.9 µM | 2190 nM | 8.69 µM | 1870 nM | 10.6 µM |
| COc1ccc(C(=O)c2ccc([As]=O)cc2)cc1 (stereo not given) | 36.3 nM | 0.158 µM | 33.3 nM | 0.119 µM | 0.0932 µM | 0.236 µM | 41 nM | 0.166 µM | – | – | 106 nM | 0.346 µM | 69.6 nM | 0.204 µM | 130 nM | 0.262 µM | 22.4 nM | 0.0643 µM |
| C=C1C(=O)O[C@H]2[C@H]1CC/C(C=Nc1c(N)cc(C(F)(F)F)cc1Br)=C\CC[C@@]1(C)O[C@@H]21 | 1420 nM | 3.01 µM | 1410 nM | 2.71 µM | 3.46 µM | 13.2 µM | 1600 nM | 3.16 µM | 1080 nM | 6.73 µM | 397 nM | 2.48 µM | 1260 nM | 2.52 µM | 1170 nM | 2.75 µM | 399 nM | 2.37 µM |
| CCNC(=O)c1noc(-c2cc(C(C)C)c(O)cc2O)c1-c1ccc(CN2CCOCC2)cc1 | < 22.4 nM | > 100 µM | 37.3 nM | > 100 µM | 0.0762 µM | > 100 µM | 78.7 nM | 5.64 µM | 40.7 nM | 29 µM | 24 nM | 1.17 µM | 45.7 nM | > 100 µM | 25.2 nM | 0.0738 µM | 42.8 nM | 23.1 µM |
